Measured values taken from US12077503B2, “Substituted cyclic amides and their use as herbicides” (FMC CORPORATION, priority 2015, dated 2024).
Where two headings read alike, the source gives them in different places.

Legend:
Format in all cases: in vivo
[1] = test system: Galium (catchweed bedstraw, Galium aparine); assay: Test A postemergence; conditions: Galium, post-emergence, 240 h, postemergence; for pest or weed control at 125 g/ha: 125 g ai/ha
How it was run: (§1)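 In a loam soil and sand blend, planted seeds got a preemergence directed soil spray, and young plants at the one- to two-leaf stage, 2–10 cm high, got a postemergence application; ~10 d greenhouse hold; injury rated visually, 0 = none, 100 = complete control.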

Kochia (Kochia scoparia) = assay: Test A postemergence; conditions: Bassia scoparia, post-emergence, 240 h, postemergence; for pest or weed control at 125 g/ha: 125 g ai/ha
How it was run: as §1

[2] = test system: barnyardgrass (Echinochloa crus-galli); assay: Test A postemergence; conditions: Echinochloa crus-galli, post-emergence, 240 h, postemergence; for pest or weed control at 125 g/ha: 125 g ai/ha
How it was run: as §1

[3] = test system: blackgrass (Alopecurus myosuroides); assay: Test A postemergence; conditions: Alopecurus myosuroides, post-emergence, 240 h, postemergence; for pest or weed control at 125 g/ha: 125 g ai/ha
How it was run: as §1

corn (Zea mays) = assay: Test A postemergence; conditions: Zea mays, post-emergence, 240 h, postemergence
How it was run: as §1

[4] = test system: giant foxtail (Setaria faberii); assay: Test A postemergence; conditions: Setaria faberi, post-emergence, 240 h, postemergence; for pest or weed control at 125 g/ha: 125 g ai/ha
How it was run: as §1

[5] = test system: pigweed (Amaranthus retroflexus); assay: Test A postemergence; conditions: Amaranthus retroflexus, post-emergence, 240 h, postemergence; for pest or weed control at 125 g/ha: 125 g ai/ha
How it was run: as §1

[6] = test system: ragweed (common ragweed, Ambrosia elatior); assay: Test A postemergence; conditions: Ambrosia artemisiifolia, post-emergence, 240 h, postemergence; for pest or weed control at 125 g/ha: 125 g ai/ha
How it was run: as §1

[7] = test system: ryegrass, Italian (Italian ryegrass, Lolium multiflorum); assay: Test A postemergence; conditions: Lolium multiflorum, post-emergence, 240 h, postemergence; for pest or weed control at 125 g/ha: 125 g ai/ha
How it was run: as §1

[8] = test system: wheat (Triticum aestivum); assay: Test A postemergence; conditions: Triticum aestivum, post-emergence, 240 h, postemergence; for plant injury at 125 g/ha: 125 g ai/ha
How it was run: as §1

[9] = test system: barnyardgrass (Echinochloa crus-galli); assay: Test B flooded paddy test; conditions: Echinochloa crus-galli, 250 g ai/ha, Flood, read-out: Barnyardgrass plant response rating
How it was run: (§2)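 2-leaf plants; pots flooded 3 cm over soil; cpd added to paddy water; depth held; greenhouse 13–15 d; visual rating vs controls, 0 = no effect, 100 = complete control.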

[10] = test system: ducksalad (Heteranthera limosa); assay: Test B flooded paddy test; conditions: Heteranthera limosa, 250 g ai/ha, Flood, read-out: Ducksalad plant response rating
How it was run: as §2

rice (Oryra sativa) = assay: Test B flooded paddy test; conditions: Oryza sativa, 250 g ai/ha, Flood, read-out: Rice plant response rating
How it was run: as §2

[11] = test system: sedge, umbrella (small-flower umbrella sedge, Cyperus difformis); assay: Test B flooded paddy test; conditions: Cyperus difformis, 250 g ai/ha, Flood, read-out: Sedge, Umbrella plant response rating
How it was run: as §2

[12] = 0 to 100 scale where 0 is no effect and 100 is complete control
[13] = scale of 0 to 100 where 0 is no effect and 100 is complete control

Question: What does the source list for `Cc1c(F)cccc1NC(=O)[C@H]1C(=O)N(C)C[C@@H]1c1ccc(OC(F)F)cc1` [Compound 1213]?
Answer: pest or weed control at 125 g/ha ([1]; visual injury vs untreated controls after approx. 10 d, 0 = no effect, 100 = complete control, read-out: Galium plant response rating (0 to 100 scale)): 50%; pest or weed control at 500 g/ha ([1]; 500 g ai/ha, 0 to 100 scale, 0 is no effect, 100 is complete control, read-out: Galium plant response rating): 60%; pest or weed control at 125 g/ha (Kochia (Kochia scoparia); visual injury vs untreated controls after approx. 10 d, 0 = no effect, 100 = complete control, read-out: Kochia plant response rating (0 to 100 scale)): 50%; pest or weed control at 500 g/ha (Kochia (Kochia scoparia); 500 g ai/ha, 0 to 100 scale, 0 is no effect, 100 is complete control, read-out: Kochia plant response rating): 60%; pest or weed control at 125 g/ha ([2]; visual injury vs untreated controls after approx. 10 d, 0 = no effect, 100 = complete control, read-out: Barnyardgrass plant response rating (0 to 100 scale)): 100%; pest or weed control at 500 g/ha ([2]; 500 g ai/ha, 0 to 100 scale, 0 is no effect, 100 is complete control, read-out: Barnyardgrass plant response rating): 100%; pest or weed control at 125 g/ha ([3]; visual injury vs untreated controls after approx. 10 d, 0 = no effect, 100 = complete control, read-out: Blackgrass plant response rating (0 to 100 scale)): 20%; pest or weed control at 500 g/ha ([3]; 500 g ai/ha, 0 to 100 scale, 0 is no effect, 100 is complete control, read-out: Blackgrass plant response rating): 40%; plant injury at 125 g/ha (corn (Zea mays); 125 g ai/ha, visual injury vs untreated controls after approx. 10 d, 0 = no effect, 100 = complete control, read-out: Corn plant response rating (0 to 100 scale)): 50%; plant injury at 500 g/ha (corn (Zea mays); 500 g ai/ha, 0 to 100 scale, 0 is no effect, 100 is complete control, read-out: Corn plant response rating): 80%; pest or weed control at 125 g/ha ([4]; visual injury vs untreated controls after approx. 10 d, 0 = no effect, 100 = complete control, read-out: Foxtail, Giant plant response rating (0 to 100 scale)): 90%; pest or weed control at 500 g/ha ([4]; 500 g ai/ha, 0 to 100 scale, 0 is no effect, 100 is complete control, read-out: Foxtail, Giant plant response rating): 90%; pest or weed control at 125 g/ha ([5]; visual injury vs untreated controls after approx. 10 d, 0 = no effect, 100 = complete control, read-out: Pigweed plant response rating (0 to 100 scale)): 0%; pest or weed control at 500 g/ha ([5]; 500 g ai/ha, 0 to 100 scale, 0 is no effect, 100 is complete control, read-out: Pigweed plant response rating): 0%; pest or weed control at 125 g/ha ([6]; visual injury vs untreated controls after approx. 10 d, 0 = no effect, 100 = complete control, read-out: Ragweed plant response rating (0 to 100 scale)): 0%; pest or weed control at 500 g/ha ([6]; 500 g ai/ha, 0 to 100 scale, 0 is no effect, 100 is complete control, read-out: Ragweed plant response rating): 0%; pest or weed control at 125 g/ha ([7]; visual injury vs untreated controls after approx. 10 d, 0 = no effect, 100 = complete control, read-out: Ryegrass, Italian plant response rating (0 to 100 scale)): 0%; pest or weed control at 500 g/ha ([7]; 500 g ai/ha, 0 to 100 scale, 0 is no effect, 100 is complete control, read-out: Ryegrass, Italian plant response rating): 50%; plant injury at 125 g/ha ([8]; visual injury vs untreated controls after approx. 10 d, 0 = no effect, 100 = complete control, read-out: Wheat plant response rating (0 to 100 scale)): 40%; plant injury at 500 g/ha ([8]; 500 g ai/ha, 0 to 100 scale, 0 is no effect, 100 is complete control, read-out: Wheat plant response rating): 50%; pest or weed control at 250 g/ha [9, 12]: 70%; pest or weed control at 250 g/ha [10, 12]: 100%; pest or weed control at 250 g/ha (rice (Oryra sativa); [12]): 20%; pest or weed control at 250 g/ha [11, 12]: 0%

Question: With `CC(F)(F)c1cccc([C@H]2CNC(=O)[C@@H]2C(=O)Nc2cccc(F)c2F)c1` [Compound 779] as the compound, how does the pest or weed control at 125 g/ha ([1]; visual injury after approximately 10 d, 0 to 100 scale (0 no effect, 100 complete control), read-out: Plant response rating, Galium) read?
Answer: 60%

Question: What about the pest or weed control at 125 g/ha (Kochia (Kochia scoparia); visual injury after approximately 10 d, 0 to 100 scale (0 no effect, 100 complete control), read-out: Plant response rating, Kochia) of the same compound?
Answer: 30%

Question: And the pest or weed control at 125 g/ha ([2]; visual injury after approximately 10 d, 0 to 100 scale (0 no effect, 100 complete control), read-out: Plant response rating, Barnyardgrass)?
Answer: 90%

Question: What about the pest or weed control at 125 g/ha ([3]; visual injury after approximately 10 d, 0 to 100 scale (0 no effect, 100 complete control), read-out: Plant response rating, Blackgrass) of the same compound?
Answer: 70%

Question: And the Corn plant response rating (crop injury, 0 = no effect, 100 = complete kill) at 125 g/ha (corn (Zea mays); 125 g ai/ha, visual injury after approximately 10 d, 0 to 100 scale (0 no effect, 100 complete control))?
Answer: 80%

Question: And the pest or weed control at 125 g/ha ([4]; visual injury after approximately 10 d, 0 to 100 scale (0 no effect, 100 complete control), read-out: Plant response rating, Foxtail, Giant)?
Answer: 80%

Question: And the pest or weed control at 125 g/ha ([5]; visual injury after approximately 10 d, 0 to 100 scale (0 no effect, 100 complete control), read-out: Plant response rating, Pigweed)?
Answer: 0%

Question: What about the pest or weed control at 125 g/ha ([6]; visual injury after approximately 10 d, 0 to 100 scale (0 no effect, 100 complete control), read-out: Plant response rating, Ragweed) of the same compound?
Answer: 20%

Question: And the pest or weed control at 125 g/ha ([7]; visual injury after approximately 10 d, 0 to 100 scale (0 no effect, 100 complete control), read-out: Plant response rating, Ryegrass, Italian)?
Answer: 40%

Question: What about the plant injury at 125 g/ha ([8]; visual injury after approximately 10 d, 0 to 100 scale (0 no effect, 100 complete control), read-out: Plant response rating, Wheat) of the same compound?
Answer: 80%

Question: And the pest or weed control at 250 g/ha [9, 13]?
Answer: 60%

Question: And the pest or weed control at 250 g/ha [10, 13]?
Answer: 100%

Question: What about the pest or weed control at 250 g/ha (rice (Oryra sativa); [13]) of the same compound?
Answer: 0%

Question: And the pest or weed control at 250 g/ha [11, 13]?
Answer: 0%
